From patent US20250082660A1 (priority 2023, published 2025)
Where a name gives a salt, the structure may show the parent alone. Read-outs that look alike come from different tables or passages of the source.

Columns and labels:
CYP1A1 enzyme = target: T1, CYP1A1 enzyme (Homo sapiens, UniProt P04798); details: cited from earlier work
T1 sequence (P04798 1-512): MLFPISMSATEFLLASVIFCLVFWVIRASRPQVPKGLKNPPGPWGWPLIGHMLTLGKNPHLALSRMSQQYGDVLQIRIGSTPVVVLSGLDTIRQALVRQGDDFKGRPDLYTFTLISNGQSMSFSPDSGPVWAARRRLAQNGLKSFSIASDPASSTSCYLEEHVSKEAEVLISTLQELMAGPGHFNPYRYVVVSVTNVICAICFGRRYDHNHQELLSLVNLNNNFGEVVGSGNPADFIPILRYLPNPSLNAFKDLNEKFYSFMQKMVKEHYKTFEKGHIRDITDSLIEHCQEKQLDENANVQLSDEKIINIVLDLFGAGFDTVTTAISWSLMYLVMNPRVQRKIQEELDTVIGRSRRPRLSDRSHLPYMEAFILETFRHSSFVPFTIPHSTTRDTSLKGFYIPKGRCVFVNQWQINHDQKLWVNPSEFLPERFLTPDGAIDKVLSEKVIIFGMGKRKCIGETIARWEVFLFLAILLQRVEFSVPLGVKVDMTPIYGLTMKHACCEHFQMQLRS

[1] = target: T2, cytosolic phospholipase A2 (cPLA2, PLA2G4) (Homo sapiens, UniProt P47712); assay: cPLA2 phosphorylation
T2 sequence (P47712 1-749): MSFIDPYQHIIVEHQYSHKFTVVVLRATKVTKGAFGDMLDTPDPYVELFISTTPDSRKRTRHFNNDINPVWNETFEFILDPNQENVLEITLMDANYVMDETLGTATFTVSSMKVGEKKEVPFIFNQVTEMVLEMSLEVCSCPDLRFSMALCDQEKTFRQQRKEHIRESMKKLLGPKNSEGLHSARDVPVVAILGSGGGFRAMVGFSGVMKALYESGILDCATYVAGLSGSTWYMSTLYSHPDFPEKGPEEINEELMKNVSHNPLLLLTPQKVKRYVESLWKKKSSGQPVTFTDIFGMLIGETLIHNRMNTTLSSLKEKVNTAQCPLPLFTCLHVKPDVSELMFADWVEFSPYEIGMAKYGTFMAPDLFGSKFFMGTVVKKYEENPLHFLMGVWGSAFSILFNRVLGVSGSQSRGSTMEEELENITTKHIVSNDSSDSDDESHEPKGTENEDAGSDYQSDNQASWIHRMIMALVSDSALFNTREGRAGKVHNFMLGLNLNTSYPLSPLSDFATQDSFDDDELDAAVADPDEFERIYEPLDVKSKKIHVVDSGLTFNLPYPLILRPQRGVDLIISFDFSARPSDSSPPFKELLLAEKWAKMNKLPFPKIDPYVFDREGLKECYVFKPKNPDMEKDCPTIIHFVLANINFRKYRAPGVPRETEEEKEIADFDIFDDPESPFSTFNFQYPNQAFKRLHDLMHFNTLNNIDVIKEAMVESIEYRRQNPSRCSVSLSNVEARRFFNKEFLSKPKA

ALOX5 = target: T3, ALOX5 (Homo sapiens, UniProt P09917); details: in vitro and in vivo; cited from earlier work
T3 sequence (P09917 1-674): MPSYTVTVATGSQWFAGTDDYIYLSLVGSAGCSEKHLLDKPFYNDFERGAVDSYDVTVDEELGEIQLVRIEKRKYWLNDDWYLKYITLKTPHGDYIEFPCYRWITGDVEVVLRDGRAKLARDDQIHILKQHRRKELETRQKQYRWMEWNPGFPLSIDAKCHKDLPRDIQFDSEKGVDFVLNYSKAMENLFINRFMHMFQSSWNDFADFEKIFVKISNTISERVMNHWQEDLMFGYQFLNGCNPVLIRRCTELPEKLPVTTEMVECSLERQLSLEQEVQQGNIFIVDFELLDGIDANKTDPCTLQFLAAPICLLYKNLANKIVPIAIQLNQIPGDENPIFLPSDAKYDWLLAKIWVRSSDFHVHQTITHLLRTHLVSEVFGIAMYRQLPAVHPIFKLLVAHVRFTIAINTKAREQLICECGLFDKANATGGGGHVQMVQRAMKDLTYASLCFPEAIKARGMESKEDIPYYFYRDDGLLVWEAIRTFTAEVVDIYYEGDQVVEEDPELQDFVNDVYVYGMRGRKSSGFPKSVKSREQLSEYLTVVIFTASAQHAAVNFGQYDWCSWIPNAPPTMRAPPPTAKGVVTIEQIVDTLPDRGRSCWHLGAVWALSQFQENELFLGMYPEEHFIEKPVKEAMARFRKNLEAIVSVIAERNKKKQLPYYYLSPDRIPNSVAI

CYP1A2 = target: T4, CYP1A2 (Homo sapiens, UniProt P05177); details: cited from earlier work
T4 sequence (P05177 1-516): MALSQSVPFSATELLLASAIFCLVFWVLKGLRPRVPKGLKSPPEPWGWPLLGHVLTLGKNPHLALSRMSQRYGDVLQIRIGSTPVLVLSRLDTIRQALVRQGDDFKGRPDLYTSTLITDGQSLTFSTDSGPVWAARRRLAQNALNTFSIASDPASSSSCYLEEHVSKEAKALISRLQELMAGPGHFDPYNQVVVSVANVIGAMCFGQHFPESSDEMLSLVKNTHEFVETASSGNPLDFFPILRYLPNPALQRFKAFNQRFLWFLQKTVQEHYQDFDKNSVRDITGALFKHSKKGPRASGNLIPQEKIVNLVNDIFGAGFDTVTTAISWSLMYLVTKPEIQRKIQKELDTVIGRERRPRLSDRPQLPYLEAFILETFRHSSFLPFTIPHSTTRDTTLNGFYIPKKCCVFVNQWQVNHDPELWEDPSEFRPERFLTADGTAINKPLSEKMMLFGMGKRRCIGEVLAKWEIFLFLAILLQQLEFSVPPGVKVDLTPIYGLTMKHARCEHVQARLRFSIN

[2] = cited from earlier work
[3] = Fecal phytochemistry: metabolism of Senna ingredients; type: in vivo, C57BL/6J Mus musculus; details: Senna group, feces
Description: First, the phytochemical compounds in CDD-2101 and feces were characterized using the UHPLC/Q-TOF-MS with the same parameters as for the metabolomics analysis described in section 1.4. Potential active compounds were selected because of their frequent use in pharmacology study, and their high abundance in CDD-2101 and feces. Those compounds were confirmed by commercial standards. Second, the biological targets of these compounds were gathered by searching in BindingDB (https://www.bindingdb.org/) and STITCH (http://stitch.embl.de/). The candidate targets of constipation were gathered by searching on the keyword “constipation” in GeneCards (https://www.genecards.org/). Third, these targets were manually checked in full texts of relevant references. The confirmed proteins were considered to be the predicted targets of CDD-2101 against constipation.

[4] = system: loperamide-induced acute model mice; type: in vivo, C57BL/6J Mus musculus; details: oral loperamide 2.5 mg/kg, 0-9 h after treatment, mean±SEM, n=6
Method: Six-week-old male (18-22 g) C57BL/6J Mus musculus were obtained from Laboratory Animal Services Center, The Chinese University of Hong Kong. All mice were housed in an environmentally controlled room (22±1° C.; ˜ 50% relative humidity) with a 12-h light-dark cycle, and fed a normal rodent diet and water. Animal care was approved by the Committee on the Use of Human and Animal Subjects in Teaching and Research, Hong Kong Baptist University (REC/19-20/0300).
Mice were randomly assigned to the following four groups (n=6 per group): control group, loperamide group, loperamide+CDD-2101 group, and loperamide+Senna group. The mice in the control group were only orally treated with Milli-Q water. The other groups were orally administrated with loperamide (2.5 mg/kg body weight). CDD-2101 and Senna were administered based on the clinical dosages of MZRW and Senna, respectively, used in constipation patients. The CDD-2101 group was orally administered with 30 g/d/kg body weight. The Senna group was given 8 tablets/day.
All fecal pellets produced during the first 5 min were discarded. Then fecal samples were collected, and the frequency was recorded for the next 9 h. Fecal pellets were put into tubes set in dry ice. After collection, they were stored at −80° C. for further use. Gastrointestinal motility was calculated from pellet frequency. The secretion was determined by pellet water content.

C=CCc1ccc(O)c(-c2cc(CC=C)ccc2O)c1 [magnolol]
binding to CYP1A1 enzyme (CYP1A1 enzyme; reported): bind | cPLA2 (PLA2G4) phosphorylation [1]: stimulated | inhibition of ALOX5 enzyme (ALOX5): strongly inhibit | inhibition of CYP1A2 enzyme (CYP1A2): strongly inhibit

COc1ccc([C@@H]2CC(=O)c3c(O)cc(O[C@@H]4O[C@H](CO[C@@H]5O[C@@H](C)[C@H](O)[C@@H](O)[C@H]5O)[C@@H](O)[C@H](O)[C@H]4O)cc3O2)cc1O [hesperidin]
metabolite formed in the colon [2]: hesperetin

O=C1C[C@@H](c2ccc(O)cc2)Oc2cc(O)cc(O)c21 [naringenin]
binding to CYP1A1 enzyme (CYP1A1 enzyme): bind

C[C@]12C[C@@H](O)[C@@H]3C[C@@]1(O[C@@H]1O[C@H](CO)[C@@H](O)[C@H](O)[C@H]1O)[C@@]3(COC(=O)c1ccccc1)C(=O)O2 [albiflorin]
cPLA2 (PLA2G4) phosphorylation [1]: stimulated

O=C(O)c1cc(O)c2c(c1)[C@@H]([C@H]1c3cc(C(=O)O)cc(O)c3C(=O)c3c(O[C@@H]4O[C@H](CO)[C@@H](O)[C@H](O)[C@H]4O)cccc31)c1cccc(O[C@@H]3O[C@H](CO)[C@@H](O)[C@H](O)[C@H]3O)c1C2=O [sennoside B]
metabolite formed [3]: rhein

CN(C)C(=O)C(CCN1CCC(O)(c2ccc(Cl)cc2)CC1)(c1ccccc1)c1ccccc1 [loperamide, Loperamide hydrochloride]
cumulative number of fecal pellet [4]: 21.5±2.7 pellets/9 h | fecal pellet water content [4]: 48.2±2.1%

COc1ccc([C@@H]2CC(=O)c3c(O)cc(O)cc3O2)cc1O [hesperetin]
binding to CYP1A1 enzyme (CYP1A1 enzyme): bind

O=C(O)c1cc(O)c2c(c1)[C@H]([C@H]1c3cc(C(=O)O)cc(O)c3C(=O)c3c(O[C@@H]4O[C@H](CO)[C@@H](O)[C@H](O)[C@H]4O)cccc31)c1cccc(O[C@@H]3O[C@H](CO)[C@@H](O)[C@H](O)[C@H]3O)c1C2=O [sennoside A]
metabolite formed [3]: rhein
